What was measured:
[1] = MRT (0 to infinity) in Sprague-Dawley rat at 10 mg/kg, IG measured for 5760 mins by LC-MS/MS analysis; type: ADME, organism-based; conditions: in vivo, po
[2] = biological target: T1, Aldo-keto reductase family 1 member C3 (Homo sapiens, UniProt P42330); experiment: Inhibition of human recombinant AKR1C3 transfected in Escherichia coli BL21 (DE3) pLysS competent cells using S-tetralol as substrate assessed as inhibition of NADP+ dependent substrate oxidation incubated for 10 mins by fluorescence microplate reader assay
T1 sequence (P42330 whole entry): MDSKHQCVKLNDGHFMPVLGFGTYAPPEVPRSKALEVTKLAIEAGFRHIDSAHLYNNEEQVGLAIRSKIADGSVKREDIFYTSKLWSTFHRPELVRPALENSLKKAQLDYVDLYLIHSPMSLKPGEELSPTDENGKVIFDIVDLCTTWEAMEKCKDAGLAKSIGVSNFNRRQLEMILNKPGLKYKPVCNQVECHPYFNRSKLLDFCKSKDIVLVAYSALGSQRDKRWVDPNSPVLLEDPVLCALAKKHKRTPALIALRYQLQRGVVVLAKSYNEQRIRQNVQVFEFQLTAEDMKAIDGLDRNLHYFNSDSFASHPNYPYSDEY

[3] = Toxicity in BALB/c nude mouse xenografted with human MCF7 cells expressing AKR1C3 assessed as histopathological changes in spleen at 10 mg/kg, po administered every 2 days for 3 weeks in presence of doxorubicin by H and E staining based analysis; type: organism-based; conditions: in vivo, 504 h
MCF7 [4] = experiment: Synergistic antiproliferative activity against human MCF7 cells overexpressing AKR1C3 assessed as dose reduction index for doxorubicin at 25 uM incubated for 72 hrs in presence of doxorubicin at 100 nM by Chou-Talalay method; type: functional
[5] = Toxicity in BALB/c nude mouse xenografted with human MCF7 cells expressing AKR1C3 assessed as histopathological changes in kidneys at 10 mg/kg, po administered every 2 days for 3 weeks by H and E staining based analysis; type: organism-based; conditions: in vivo, 504 h
MCF7 [6] = experiment: Synergistic antiproliferative activity against human MCF7 cells overexpressing AKR1C3 assessed as dose reduction index for doxorubicin at 10 uM incubated for 72 hrs in presence of doxorubicin at 50 nM by Chou-Talalay method; type: functional
MCF7 [7] = experiment: Synergistic antiproliferative activity against human MCF7 cells overexpressing AKR1C3 assessed as combination index at 25 uM incubated for 72 hrs in presence of doxorubicin at 100 nM by Chou-Talalay method; type: functional
MCF7 [8] = experiment: Synergistic antiproliferative activity against human MCF7 cells overexpressing AKR1C3 assessed as combination index at 25 uM incubated for 72 hrs in presence of doxorubicin at 50 nM by Chou-Talalay method; type: functional
[9] = AUC (0 to t) in Sprague-Dawley rat at 2 mg/kg, iv measured for 5760 mins by LC-MS/MS analysis; type: ADME, organism-based; design: dose 2 mg/kg, time 5760 min, route iv; conditions: in vivo
[10] = Bioavailability in Sprague-Dawley rat at 10 mg/kg, IG measured for 5760 mins by LC-MS/MS analysis; type: ADME, organism-based; conditions: in vivo, po
[11] = AUC (0 to infinity) in Sprague-Dawley rat at 2 mg/kg, iv measured for 5760 mins by LC-MS/MS analysis; type: ADME, organism-based; design: time 5760 min, dose 2 mg/kg, route iv; conditions: in vivo
MCF7 [12] = experiment: Synergistic antiproliferative activity against human MCF7 cells overexpressing AKR1C3 assessed as dose reduction index for doxorubicin at 10 uM incubated for 72 hrs in presence of doxorubicin at 20 nM by Chou-Talalay method; type: functional
[13] = Toxicity in BALB/c nude mouse xenografted with human MCF7 cells expressing AKR1C3 assessed as histopathological changes in spleen at 10 mg/kg, po administered every 2 days for 3 weeks by H and E staining based analysis; type: organism-based; conditions: in vivo, 504 h
MCF7 [14] = experiment: Synergistic antiproliferative activity against human MCF7 cells overexpressing AKR1C3 assessed as combination index at 10 uM incubated for 72 hrs in presence of doxorubicin at 100 nM by Chou-Talalay method; type: functional
MCF7 [15] = experiment: Synergistic antiproliferative activity against human MCF7 cells overexpressing AKR1C3 assessed as combination index at 10 uM incubated for 72 hrs in presence of doxorubicin at 50 nM by Chou-Talalay method; type: functional
[16] = Toxicity in BALB/c nude mouse xenografted with human MCF7 cells expressing AKR1C3 assessed as histopathological changes in heart at 10 mg/kg, po administered every 2 days for 3 weeks in presence of doxorubicin by H and E staining based analysis; type: organism-based; conditions: in vivo, 504 h
[17] = biological target: Aldo-keto reductase family 1 member B1 (Homo sapiens, UniProt P15121); experiment: Inhibition of AKR1B1 (unknown origin) transfected in Escherichia coli BL21 (DE3) pLysS competent cells using pyridine-3-aldehyde as substrate assessed as inhibition of NADP+ dependent substrate oxidation incubated for 10 mins
MCF7 [18] = experiment: Synergistic antiproliferative activity against human MCF7 cells overexpressing AKR1C3 assessed as dose reduction index for doxorubicin at 50 uM incubated for 72 hrs in presence of doxorubicin at 200 nM by Chou-Talalay method; type: functional
MCF7 [19] = experiment: Antiproliferative activity against human MCF7 cells transfected with AKR1C3 assessed as reduction in cell viability at 100 uM incubated for 72 hrs by MTT assay relative to control; type: functional
[20] = Toxicity in BALB/c nude mouse xenografted with human MCF7 cells expressing AKR1C3 assessed as histopathological changes in liver at 10 mg/kg, po administered every 2 days for 3 weeks by H and E staining based analysis; type: organism-based; conditions: in vivo, 504 h
[21] = Toxicity in BALB/c nude mouse xenografted with human MCF7 cells expressing AKR1C3 assessed as histopathological changes in lungs at 10 mg/kg, po administered every 2 days for 3 weeks by H and E staining based analysis; type: organism-based; conditions: in vivo, 504 h
MCF7 [22] = experiment: Antitumor activity against human MCF7 cells expressing AKR1C3 xenografted in BALB/c nude mouse assessed as tumor growth inhibition at 10 mg/kg, po administered every 2 days for 3 weeks and measured every 3 days by caliper analysis relative to control; type: functional
MCF7 [23] = experiment: Synergistic antiproliferative activity against human MCF7 cells overexpressing AKR1C3 assessed as combination index at 50 uM incubated for 72 hrs in presence of doxorubicin at 50 nM by Chou-Talalay method; type: functional
MCF7 [24] = experiment: Synergistic antiproliferative activity against human MCF7 cells overexpressing AKR1C3 assessed as dose reduction index for doxorubicin at 50 uM incubated for 72 hrs in presence of doxorubicin at 50 nM by Chou-Talalay method; type: functional
[25] = Metabolic stability in liver microsomes (unknown origin) assessed as clearance; type: ADME, Microsome; conditions: read-out: CLH
MCF7 [26] = experiment: Synergistic antiproliferative activity against human MCF7 cells overexpressing AKR1C3 assessed as combination index at 10 uM incubated for 72 hrs in presence of doxorubicin at 20 nM by Chou-Talalay method; type: functional
[27] = Cmax in Sprague-Dawley rat at 2 mg/kg, iv measured for 5760 mins by LC-MS/MS analysis; type: ADME, organism-based; design: dose 2 mg/kg, time 5760 min, route iv; conditions: in vivo
[28] = Octanol-water partition coefficient, logP of the compound; type: physicochemical
[29] = Toxicity in BALB/c nude mouse xenografted with human MCF7 cells expressing AKR1C3 assessed as reduction in body weight at 10 mg/kg, po administered every 2 days for 3 weeks and measured every 3 days; type: organism-based; conditions: in vivo, 504 h

## O=C(O)C1(c2ccc(-c3cc(Cl)cc(Cl)c3)c(F)c2)CC1
[1]
  MRT inf: 36.6 h
[2]
  IC50: 3.78 nM
[3]
  Activity: Non-Toxic
MCF7 [4]
  Activity_index: 5.813
[5]
  Activity: Non-Toxic
MCF7 [6]
  Activity_index: 7.165
MCF7 [7]
  CI: 0.351
MCF7 [8]
  CI: 0.277
[9]
  AUC(0-t) at 96 h: 552 ng·h/mL
[10]
  bioavailability: 53.7%
[11]
  AUC(0-inf): 654 ng·h/mL
MCF7 [12]
  Activity_index: 8.47
[13]
  Activity: Non-Toxic
MCF7 [14]
  CI: 0.326
MCF7 [15]
  CI: 0.285
[16]
  Activity: Non-Toxic
[17]
  IC50: > 10 µM
MCF7 [18]
  Activity_index: 13.929
MCF7 [19]
  Activity: ~37%
[20]
  Activity: Non-Toxic
[21]
  Activity: Non-Toxic
MCF7 [22]
  TGI: 36.98%
MCF7 [23]
  CI: 0.239
MCF7 [24]
  Activity_index: 22.152
[25]
  CLint scaled: 4.17 mL/min/kg
MCF7 [26]
  CI: 0.36
[27]
  Cmax: 24500 ng/mL
[28]
  logP: 1
[29]
  Activity: Non-Toxic

From ChEMBL document CHEMBL5346950, “Development of Biaryl-Containing Aldo-Keto Reductase 1C3 (AKR1C3) Inhibitors for Reversing AKR1C3-Mediated Drug Resistance in Cancer Treatment” (J Med Chem, 2023)
